In patent US6423739B1, “Method for aiding cerebral recovery following neurodegeneration” (Daiichi Pharmaceutical Co., Ltd., priority 2000, dated 2002):

What was measured:
post-stroke patients = assay: Controlled clinical trial against placebo, symptom scale measuring Activities of Daily Living; assay type: in vivo, human
Source text: The activity of nefiracetam to improve ADL in post-stroke patients has been discovered during a controlled clinical trial against placebo. The compound has been administered orally to 32 post-stroke patients within six months after the event whilst, concurrently, 27 patients received placebo. The two groups of patients were followed during at least 8 weeks and followed up at the end of week 4 and at the end of week 8 on a symptom scale measuring Activities of Daily Living. […] Among the above 59 patients, 19 received nefiracetam and 10 received placebo within three months after stroke. […] The difference was significant (p=0.035, χ^2 test). […] Thus nefiracetam, when administered early after the event, appears to be the first drug which is able to induce a recovery from stroke or, at least, to improve the recovery from stroke.

[1] = test system: hippocampal and cortical rat embryo neurons; assay: Neurite outgrowth in primary cultures of hippocampal and cortical rat embryo neurons; assay type: cell-based
[2] = test system: patients after a stroke (cerebral infarction or cerebral hemorrhage); conditions: post-stroke patients, Ohtomo et al. 1994; cited from earlier work
[3] = test system: rats with cerebral embolism; assay: Watermaze spatial learning and retention test in rats with cerebral embolism; assay type: in vivo, rat
Source text: The mechanism of action of nefiracetam for this indication, which is not bound to the nootropic activity of the drug, is unknown, but it is believed that its surprising effect in improving ADL of a patient after a stroke or in the recovery of, or at least in improving the recovery of, a post-stroke patient, is due to a true brain repair. This assumption is confirmed by the effect of nefiracetam on spatial learning and retention in rats with cerebral embolism, treated for 9 days with nefiracetam or vehicle, starting within 24 hours of embolization.
In male Wistar rats weighing 190-220 g a total of 700 microspheres (48 μm in diameter) were injected into the right common carotid artery of each animal, whereby a quasi-immediate embolism occurs. The embolized animals were randomly divided into 2 groups, each of 13 animals with same neurological deficit, designated as “Control” (embolism plus Vehicle), or “Nefiracetam” (embolism plus nefiracetam 10 mg/kg/day). In addition, a group of 13 “Normal (Sham)” non-embolized animals were used. The administration of nefiracetam or of its vehicle started within the same day of embolization and treatment lasted 9 days. Seven days after embolization, the embolized rats were submitted to a watermaze test, said watermaze being adapted from the Morris water task. The time taken to find the platform (latency) was determined. […]

## Cc1cccc(C)c1NC(=O)CN1CCCC1=O [Nefiracetam, N-(2,6-dimethylphenyl)-2-(2-oxo-1-pyrrolidinyl)acetamide]
post-stroke patients; 19 patients who received nefiracetam within three months after stroke, p=0.035 vs placebo, chi2 test
  Patients showing a moderate or remarkable improvement (Activities of Daily Living): ~70%
post-stroke patients; early treatment after stroke
  Intellectual dysfunction: dramatically improved in a high percent of nefiracetam-treated patients
  Neurological signs and incontinence: tends to improve
post-stroke patients; oral, 32 post-stroke patients treated within six months after the event, followed at week 4 and week 8
  Improvement on symptom scale measuring Activities of Daily Living: moderate or remarkable improvement
[1]; concentrations of 0.1, 1, 10 and 100 micromoles/l
  Neurotrophic effect: neurite outgrowth: significantly increasing neurite outgrowth
[1]; hippocampal neurons
  Neurotrophic effect in combination with bFGF: potentiated by bFGF
[2]
  Activities of daily living, nefiracetam vs placebo group: no significant difference between the two groups
[3]; day 17 after embolization
  Persistence of the effect after washout: maintained even after washout
[3]; days 7-9 post-embolism, t-test, p<0.05 compared to control
  Difference in learning ability versus vehicle-treated (control) brain-injured animals: statistically significant
